Results published in PubChem BioAssay (NCI).
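All cell lines were grown in 96-well plates and treated with compound for 48 hours. TGI: total growth inhibition.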

Legend:
Assay in all cases: NCI tumour cell line growth inhibition, 48 h
IGROV1 ovarian = test system: IGROV1 ovarian
SK-MEL-28 melanoma = test system: SK-MEL-28 melanoma
NCI-H23 lung = test system: NCI-H23 lung
OVCAR-4 ovarian = test system: OVCAR-4 ovarian
HOP-62 NSCLC = test system: HOP-62 NSCLC
SNB-19 CNS = test system: SNB-19 CNS
XF 498 CNS = test system: XF 498 CNS
ACHN renal = test system: ACHN renal
SF-295 CNS = test system: SF-295 CNS
COLO 205 colon = test system: COLO 205 colon
DLD-1 colon = test system: DLD-1 colon
HOP-18 NSCLC = test system: HOP-18 NSCLC
MOLT-4 leukemia = test system: MOLT-4 leukemia
HL-60(TB) leukemia = test system: HL-60(TB) leukemia
OVCAR-3 ovarian = test system: OVCAR-3 ovarian
MALME-3M melanoma = test system: MALME-3M melanoma
SNB-78 CNS = test system: SNB-78 CNS
SW-620 colon = test system: SW-620 colon
SF-539 CNS = test system: SF-539 CNS
UACC-257 melanoma = test system: UACC-257 melanoma
CCRF-CEM leukemia = test system: CCRF-CEM leukemia
SNB-75 CNS = test system: SNB-75 CNS
HCC-2998 colon = test system: HCC-2998 colon
SK-OV-3 ovarian = test system: SK-OV-3 ovarian
DMS 273 small cell lung = test system: DMS 273 small cell lung
M19-MEL melanoma = test system: M19-MEL melanoma
U251 CNS = test system: U251 CNS
RPMI-8226 leukemia = test system: RPMI-8226 leukemia
M14 melanoma = test system: M14 melanoma
TK-10 renal = test system: TK-10 renal
HCT-15 colon = test system: HCT-15 colon
CAKI-1 renal = test system: CAKI-1 renal
NCI-H226 lung = test system: NCI-H226 lung
UACC-62 melanoma = test system: UACC-62 melanoma
UO-31 renal = test system: UO-31 renal
SK-MEL-2 melanoma = test system: SK-MEL-2 melanoma
KM12 colon = test system: KM12 colon
NCI-H522 lung = test system: NCI-H522 lung
NCI-H460 lung = test system: NCI-H460 lung
LOX IMVI melanoma = test system: LOX IMVI melanoma
A549 NSCLC = test system: A549 NSCLC
RXF 393 renal = test system: RXF 393 renal
HT29 colon = test system: HT29 colon
DMS 114 small cell lung = test system: DMS 114 small cell lung
KM20L2 colon = test system: KM20L2 colon
SK-MEL-5 melanoma = test system: SK-MEL-5 melanoma
K-562 leukemia = test system: K-562 leukemia
OVCAR-5 ovarian = test system: OVCAR-5 ovarian
HCT-116 colon = test system: HCT-116 colon
SF-268 CNS = test system: SF-268 CNS
786-0 renal = test system: 786-0 renal
OVCAR-8 ovarian = test system: OVCAR-8 ovarian
LXFL 529 NSCLC = test system: LXFL 529 NSCLC
EKVX NSCLC = test system: EKVX NSCLC
HOP-92 NSCLC = test system: HOP-92 NSCLC

Measured: TGI

COc1ccc(C2Oc3ccc(O)cc3[C@@H]2C)cc1OC (stereo not given in full)
> 100 µM: all assays above
